# Key:
# Type in all cases: cell-based, human
# [1] = tested on: sorted CD4+ PE and FITC TCRVβ+ TILs; test: Proliferation of TCRBV-sorted CD4+ TILs (without TCRBV6.1 and TCRBV6.2); conditions: sheet 6b
# Source text: TILs expressing specific TCRBVs were isolated from bulk TILs using a panel of 22 fluorescently labelled TCRBV antibodies that detect 27 different TCRBVs. Twelve TCRBV antibodies were labelled with PE and 10 with FITC (Beckman Coulter). […] After another wash, cells were stained with CD4 (1:100) (APC anti-human CD4, eBioscience), CD8 (1:100) (Pacific blue anti-human CD8, BioLegend), TCRBV-PE (1:25) (Beckman Coulter) and TCRBV-FITC (1:25) (Beckman Coulter) antibodies (Supplementary Table 12) for 30 min. Finally, cells were sorted, seeded at 5 × 10^4 cells per well in T cell medium without h-IL-2 and rested for 1 day before stimulation with 2 × 10^5 cells per well of irradiated autologous PBMCs (45 Gy) and peptide (10 µM).
# Two populations of CD4^+ PE-TCRVβ^+ and CD4^+ FITC-TCRVβ^+ were sorted and later mixed together. […] Specific amount of each cytokine/chemokine (pg/ml) was calculated by subtracting the cytokines in the negative control cultures (no peptide control). Source data
# [2] = tested on: isolated TIL-derived CD4+ TCCs; test: All isolated TCCs tested against SIN3A* peptide: IFNγ ELISA; design: unit not given beside the values
# [3] = tested on: autologous glioblastoma cells; test: T cell cytotoxicity assay of TCC88 against the autologous tumour cell line; conditions: TCC88 stimulated with 2 µM peptide for 72 h; E:T 1:1 and 5:1; 24 h; duplicates; Fig. 3f
# Source text: Fig. 3 Bacteria-derived and microbiota-derived peptides can stimulate TCC88 as well as the tumour antigen. a, Peptides with the highest predicted stimulatory scores were identified by searching various databases (see Methods). Numbers of unique 10-mer peptides within each database, synthesized peptides, TCC88 stimulatory peptides and the corresponding percentage of stimulatory peptides within each database are shown. […] Cytokine and chemokine secretion of TCC88 was examined and compared upon stimulation with these three different antigens. A specific amount of each cytokine and chemokine (pg ml^−1) was calculated by subtracting the cytokines in the negative control cultures (no peptide control). f, Cytotoxicity of TCC88 against the autologous tumour cell line after stimulation with 2 µM of SIN3A* and HGM3 (data represent the mean percentage of two replicate wells). E:T, effector to target. g, TCC88 was tested with HGM3 (10 µM) or SIN3A* (10 µM) peptides or both together (each 10 µM), and ^3H-thymidine incorporation was measured after 3 days (data represent the mean SI value of three replicate wells ± s.e.m.). Also see Extended Data Figs. 3 and 4. Source data […]
substance,measurement,setting,value
Ac-QPVEFNHAIHYVN-NH2 [SIN3A*],Proliferation (SI) of sorted CD4+ TILs,[1]; replicate 1,9.2018
same,Proliferation (SI) of sorted CD4+ TILs,[1]; replicate 2,10.7366
same,Proliferation (SI) of sorted CD4+ TILs,[1]; replicate 3,6.162
same,ΔIFN-γ,"[2]; TCC4, sheet 2b",149.53
same,ΔIFN-γ,"[2]; TCC11, sheet 2b",677.024
same,ΔIFN-γ,"[2]; TCC12, sheet 2b",3046.79
same,ΔIFN-γ,"[2]; TCC13, sheet 2b",3192.25
same,ΔIFN-γ,"[2]; TCC15, sheet 2b",3025.62
same,ΔIFN-γ,"[2]; TCC16, sheet 2b",180.455
same,ΔIFN-γ,"[2]; TCC20, sheet 2b",364.759
same,ΔIFN-γ,"[2]; TCC29, sheet 2b",1013.6
same,ΔIFN-γ,"[2]; TCC31, sheet 2b",514.2
same,ΔIFN-γ,"[2]; TCC33, sheet 2b",2998.1
same,ΔIFN-γ,"[2]; TCC35, sheet 2b",228.964
same,ΔIFN-γ,"[2]; TCC38, sheet 2b",2702.02
same,ΔIFN-γ,"[2]; TCC43, sheet 2b",1674.62
same,ΔIFN-γ,"[2]; TCC47, sheet 2b",2470.16
same,ΔIFN-γ,"[2]; TCC52, sheet 2b",3139.72
same,ΔIFN-γ,"[2]; TCC56, sheet 2b",642.429
same,ΔIFN-γ,"[2]; TCC57, sheet 2b",2874.97
same,ΔIFN-γ,"[2]; TCC60, sheet 2b",2990.72
same,ΔIFN-γ,"[2]; TCC63, sheet 2b",2437.29
same,ΔIFN-γ,"[2]; TCC64, sheet 2b",999.502
same,ΔIFN-γ,"[2]; TCC68, sheet 2b",1874.1
same,ΔIFN-γ,"[2]; TCC71, sheet 2b",665.867
same,ΔIFN-γ,"[2]; TCC74, sheet 2b",114.375
same,ΔIFN-γ,"[2]; TCC75, sheet 2b",2585.8
same,ΔIFN-γ,"[2]; TCC76, sheet 2b",3066.75
same,ΔIFN-γ,"[2]; TCC80, sheet 2b",218.522
same,ΔIFN-γ,"[2]; TCC88, sheet 2b",3049.73
same,ΔIFN-γ,"[2]; TCC90, sheet 2b",3011.57
same,ΔIFN-γ,"[2]; TCC91, sheet 2b",1519.81
same,ΔIFN-γ,"[2]; TCC92, sheet 2b",2090.54
same,ΔIFN-γ,"[2]; TCC93, sheet 2b",2670.59
same,ΔIFN-γ,"[2]; TCC94, sheet 2b",2350.89
same,ΔIFN-γ,"[2]; TCC96, sheet 2b",2552.89
same,ΔIFN-γ,"[2]; TCC97, sheet 2b",2298.23
same,ΔIFN-γ,"[2]; TCC98, sheet 2b",2713.07
same,ΔIFN-γ,"[2]; TCC99, sheet 2b",3298.51
same,ΔIFN-γ,"[2]; TCC101, sheet 2b",3002.86
same,ΔIFN-γ,"[2]; TCC102, sheet 2b",3070.31
same,ΔIFN-γ,"[2]; TCC103, sheet 2b",2311.95
same,ΔIFN-γ,"[2]; TCC104, sheet 2b",2494.03
same,ΔIFN-γ,"[2]; TCC107, sheet 2b",2341.01
same,ΔIFN-γ,"[2]; TCC109, sheet 2b",2148.29
same,ΔIFN-γ,"[2]; TCC110, sheet 2b",2115.13
same,ΔIFN-γ,"[2]; TCC111, sheet 2b",2750.31
same,ΔIFN-γ,"[2]; TCC112, sheet 2b",334.245
same,ΔIFN-γ,"[2]; TCC113, sheet 2b",2127.79
same,ΔIFN-γ,"[2]; TCC114, sheet 2b",270.204
same,ΔIFN-γ,"[2]; TCC115, sheet 2b",2141.31
same,ΔIFN-γ,"[2]; TCC116, sheet 2b",2065.23
same,ΔIFN-γ,"[2]; TCC117, sheet 2b",2609.06
same,ΔIFN-γ,"[2]; TCC120, sheet 2b",5141.59
same,ΔIFN-γ,"[2]; TCC121, sheet 2b",3587.93
same,ΔIFN-γ,"[2]; TCC124, sheet 2b",8256.17
same,ΔIFN-γ,"[2]; TCC125, sheet 2b",202.234
same,ΔIFN-γ,"[2]; TCC126, sheet 2b",7530.28
same,ΔIFN-γ,"[2]; TCC127, sheet 2b",9381.79
same,ΔIFN-γ,"[2]; TCC128, sheet 2b",4427.79
same,ΔIFN-γ,"[2]; TCC129, sheet 2b",4034.06
same,ΔIFN-γ,"[2]; TCC130, sheet 2b",4723.17
same,ΔIFN-γ,"[2]; TCC131, sheet 2b",125.708
same,ΔIFN-γ,"[2]; TCC132, sheet 2b",7560.44
same,ΔIFN-γ,"[2]; TCC133, sheet 2b",4444.38
same,ΔIFN-γ,"[2]; TCC134, sheet 2b",2468
same,ΔIFN-γ,"[2]; TCC135, sheet 2b",4703.02
same,ΔIFN-γ,"[2]; TCC137, sheet 2b",3613.61
same,ΔIFN-γ,"[2]; TCC138, sheet 2b",0
same,cytotoxic activity against autologous glioblastoma cells (in words),[3],comparable
